Experimental data taken from PubChem BioAssay (NCI).
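Protocol summary: plate cells (96-well), add compound at 5 concentrations, incubate 48 h, interpolate endpoints linearly. TGI: concentration producing complete growth inhibition.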

Tests used:
Assay in all cases: NCI tumour cell line growth inhibition, 48 h
[1] = test system: 786-0 renal
[2] = test system: A498 renal
[3] = test system: A549 NSCLC
[4] = test system: ACHN renal
[5] = test system: BT-549 breast
[6] = test system: CAKI-1 renal
[7] = test system: CCRF-CEM leukemia
[8] = test system: COLO 205 colon
[9] = test system: DU-145 prostate
[10] = test system: EKVX NSCLC
[11] = test system: HCC-2998 colon
[12] = test system: HCT-116 colon
[13] = test system: HCT-15 colon
[14] = test system: HL-60(TB) leukemia
[15] = test system: HOP-62 NSCLC
[16] = test system: HOP-92 NSCLC
[17] = test system: IGROV1 ovarian
[18] = test system: K-562 leukemia
[19] = test system: KM12 colon
[20] = test system: LOX IMVI melanoma
[21] = test system: M14 melanoma
[22] = test system: MCF7 breast
[23] = test system: MDA-MB-435
[24] = test system: MDA-N
[25] = test system: MOLT-4 leukemia
[26] = test system: NCI-H226 lung
[27] = test system: NCI-H23 lung
[28] = test system: NCI-H460 lung
[29] = test system: NCI/ADR-RES ovarian
[30] = test system: OVCAR-3 ovarian
[31] = test system: OVCAR-4 ovarian
[32] = test system: OVCAR-5 ovarian
[33] = test system: OVCAR-8 ovarian
[34] = test system: PC-3 prostate
[35] = test system: RPMI-8226 leukemia
[36] = test system: RXF 393 renal
[37] = test system: SF-295 CNS
[38] = test system: SK-MEL-2 melanoma
[39] = test system: SK-MEL-28 melanoma
[40] = test system: SK-MEL-5 melanoma
[41] = test system: SK-OV-3 ovarian
[42] = test system: SN12C renal
[43] = test system: SNB-19 CNS
[44] = test system: SNB-75 CNS
[45] = test system: SR leukemia
[46] = test system: SW-620 colon
[47] = test system: T-47D breast
[48] = test system: TK-10 renal
[49] = test system: U251 CNS
[50] = test system: UACC-62 melanoma
[51] = test system: UO-31 renal
[52] = test system: HS 578T breast
[53] = test system: HT29 colon
[54] = test system: MALME-3M melanoma
[55] = test system: SF-268 CNS
[56] = test system: SF-539 CNS
[57] = test system: MDA-MB-231 breast
[58] = test system: NCI-H522 lung
[59] = test system: UACC-257 melanoma

Q: Which results are given for `CCCCc1ccc(-n2sc3ncc(-c4ccccc4)cc3c2=O)cc1`?
A: TGI [1]: > 100 µM; TGI [2]: > 100 µM; TGI [3]: > 100 µM; TGI [4]: > 100 µM; TGI [5]: > 100 µM; TGI [6]: > 100 µM; TGI [7]: > 100 µM; TGI [8]: > 100 µM; TGI [9]: > 100 µM; TGI [10]: > 100 µM; TGI [11]: > 100 µM; TGI [12]: > 100 µM; TGI [13]: > 100 µM; TGI [14]: > 100 µM; TGI [15]: > 100 µM; TGI [16]: > 100 µM; TGI [17]: > 100 µM; TGI [18]: > 100 µM; TGI [19]: > 100 µM; TGI [20]: > 100 µM; TGI [21]: > 100 µM; TGI [22]: > 100 µM; TGI [23]: > 100 µM; TGI [24]: > 100 µM; TGI [25]: > 100 µM; TGI [26]: > 100 µM; TGI [27]: > 100 µM; TGI [28]: > 100 µM; TGI [29]: > 100 µM; TGI [30]: > 100 µM; TGI [31]: > 100 µM; TGI [32]: > 100 µM; TGI [33]: > 100 µM; TGI [34]: > 100 µM; TGI [35]: > 100 µM; TGI [36]: > 100 µM; TGI [37]: > 100 µM; TGI [38]: > 100 µM; TGI [39]: > 100 µM; TGI [40]: > 100 µM; TGI [41]: > 100 µM; TGI [42]: > 100 µM; TGI [43]: > 100 µM; TGI [44]: > 100 µM; TGI [45]: > 100 µM; TGI [46]: > 100 µM; TGI [47]: 69.5 µM; TGI [48]: > 100 µM; TGI [49]: > 100 µM; TGI [50]: > 100 µM; TGI [51]: > 100 µM

Q: How did the TGI [1] turn out when `C=C1C(=O)OC2C1CCC(C)C1(O)C=CC(=O)C21C` (stereo not given) was run?
A: > 10 µM

Q: And the TGI [2]?
A: > 10 µM

Q: What about the TGI [3] of the same compound?
A: > 10 µM

Q: And the TGI [4]?
A: > 10 µM

Q: What about the TGI [7] of the same compound?
A: > 10 µM

Q: What about the TGI [8] of the same compound?
A: > 10 µM

Q: What about the TGI [10] of the same compound?
A: > 10 µM

Q: And the TGI [11]?
A: > 10 µM

Q: What about the TGI [12] of the same compound?
A: > 10 µM

Q: What about the TGI [13] of the same compound?
A: > 10 µM

Q: What about the TGI [14] of the same compound?
A: 9.5 µM

Q: And the TGI [15]?
A: > 10 µM

Q: And the TGI [16]?
A: > 10 µM

Q: And the TGI [52]?
A: > 10 µM

Q: And the TGI [53]?
A: > 10 µM

Q: What about the TGI [17] of the same compound?
A: > 10 µM

Q: What about the TGI [18] of the same compound?
A: > 10 µM

Q: What about the TGI [19] of the same compound?
A: > 10 µM

Q: What about the TGI [20] of the same compound?
A: > 10 µM

Q: And the TGI [54]?
A: > 10 µM

Q: What about the TGI [22] of the same compound?
A: > 10 µM

Q: What about the TGI [23] of the same compound?
A: > 10 µM

Q: And the TGI [24]?
A: > 10 µM

Q: What about the TGI [25] of the same compound?
A: > 10 µM

Q: And the TGI [26]?
A: > 10 µM

Q: And the TGI [27]?
A: > 10 µM

Q: What about the TGI [28] of the same compound?
A: > 10 µM

Q: What about the TGI [29] of the same compound?
A: > 10 µM

Q: And the TGI [30]?
A: > 10 µM

Q: What about the TGI [31] of the same compound?
A: > 10 µM

Q: What about the TGI [33] of the same compound?
A: > 10 µM

Q: And the TGI [34]?
A: > 10 µM

Q: And the TGI [35]?
A: > 10 µM

Q: What about the TGI [36] of the same compound?
A: > 10 µM

Q: And the TGI [55]?
A: > 10 µM

Q: What about the TGI [37] of the same compound?
A: > 10 µM

Q: What about the TGI [56] of the same compound?
A: > 10 µM

Q: What about the TGI [38] of the same compound?
A: > 10 µM

Q: What about the TGI [39] of the same compound?
A: > 10 µM

Q: What about the TGI [40] of the same compound?
A: > 10 µM

Q: What about the TGI [41] of the same compound?
A: > 10 µM

Q: And the TGI [42]?
A: > 10 µM

Q: And the TGI [43]?
A: > 10 µM

Q: What about the TGI [44] of the same compound?
A: > 10 µM

Q: What about the TGI [45] of the same compound?
A: > 10 µM

Q: What about the TGI [46] of the same compound?
A: > 10 µM

Q: What about the TGI [47] of the same compound?
A: > 10 µM

Q: What about the TGI [48] of the same compound?
A: > 10 µM

Q: What about the TGI [49] of the same compound?
A: > 10 µM

Q: What about the TGI [50] of the same compound?
A: > 10 µM

Q: What about the TGI [51] of the same compound?
A: > 10 µM

Q: With `COc1ccc2oc(S(=O)(=O)N3CC(CCl)c4ccc(N)cc43)cc2c1` (stereo not given) as the compound, how does the TGI [1] read?
A: > 10.6 µM

Q: What about the TGI [2] of the same compound?
A: > 52.1 µM

Q: And the TGI [3]?
A: > 100 µM

Q: And the TGI [4]?
A: > 94.6 µM

Q: And the TGI [5]?
A: > 55.8 µM

Q: And the TGI [6]?
A: > 86.3 µM

Q: What about the TGI [7] of the same compound?
A: 12.7 µM

Q: And the TGI [8]?
A: 14.9 µM

Q: And the TGI [9]?
A: 0.515 µM

Q: And the TGI [10]?
A: > 100 µM

Q: And the TGI [11]?
A: 3.05 µM

Q: And the TGI [12]?
A: > 8.26 µM

Q: What about the TGI [13] of the same compound?
A: > 23.9 µM

Q: What about the TGI [14] of the same compound?
A: 0.454 µM

Q: What about the TGI [15] of the same compound?
A: > 100 µM

Q: What about the TGI [16] of the same compound?
A: > 64.7 µM

Q: And the TGI [52]?
A: > 100 µM

Q: And the TGI [53]?
A: 10.1 µM

Q: What about the TGI [17] of the same compound?
A: > 34.1 µM

Q: And the TGI [18]?
A: > 60.1 µM

Q: And the TGI [19]?
A: 6.02 µM

Q: And the TGI [20]?
A: > 53.1 µM

Q: And the TGI [21]?
A: > 100 µM

Q: And the TGI [54]?
A: > 100 µM

Q: What about the TGI [22] of the same compound?
A: > 58.6 µM

Q: What about the TGI [57] of the same compound?
A: > 24.9 µM

Q: What about the TGI [24] of the same compound?
A: > 100 µM

Q: What about the TGI [25] of the same compound?
A: > 54.5 µM

Q: And the TGI [26]?
A: 1.77 µM

Q: And the TGI [27]?
A: > 100 µM

Q: What about the TGI [28] of the same compound?
A: 10.6 µM

Q: What about the TGI [58] of the same compound?
A: > 67.6 µM

Q: And the TGI [29]?
A: > 72 µM

Q: What about the TGI [30] of the same compound?
A: > 100 µM

Q: And the TGI [31]?
A: > 100 µM

Q: What about the TGI [32] of the same compound?
A: > 100 µM

Q: And the TGI [33]?
A: > 28.3 µM

Q: What about the TGI [34] of the same compound?
A: > 100 µM

Q: What about the TGI [35] of the same compound?
A: > 100 µM

Q: What about the TGI [55] of the same compound?
A: > 100 µM

Q: And the TGI [37]?
A: > 100 µM

Q: And the TGI [56]?
A: > 41.4 µM

Q: And the TGI [38]?
A: > 100 µM

Q: And the TGI [39]?
A: > 100 µM

Q: What about the TGI [40] of the same compound?
A: 4.95 µM

Q: What about the TGI [41] of the same compound?
A: > 100 µM

Q: What about the TGI [42] of the same compound?
A: > 100 µM

Q: What about the TGI [43] of the same compound?
A: > 100 µM

Q: And the TGI [44]?
A: > 100 µM

Q: What about the TGI [46] of the same compound?
A: > 100 µM

Q: And the TGI [47]?
A: > 100 µM

Q: What about the TGI [48] of the same compound?
A: > 100 µM

Q: And the TGI [49]?
A: > 100 µM

Q: What about the TGI [59] of the same compound?
A: > 100 µM

Q: What about the TGI [50] of the same compound?
A: > 100 µM

Q: What about the TGI [51] of the same compound?
A: > 100 µM

Q: What does the source list for `N#Cc1c(=O)c2ccccc2n2ccccc12`?
A: TGI [1]: > 100 µM; TGI [2]: > 100 µM; TGI [3]: > 100 µM; TGI [4]: > 100 µM; TGI [6]: > 100 µM; TGI [7]: > 100 µM; TGI [8]: > 100 µM; TGI [9]: > 100 µM; TGI [11]: > 100 µM; TGI [12]: > 100 µM; TGI [13]: > 100 µM; TGI [14]: > 100 µM; TGI [16]: > 100 µM; TGI [52]: > 100 µM; TGI [53]: > 100 µM; TGI [17]: > 100 µM; TGI [18]: > 100 µM; TGI [19]: > 100 µM; TGI [20]: > 100 µM; TGI [54]: > 100 µM; TGI [57]: > 100 µM; TGI [23]: > 100 µM; TGI [24]: > 100 µM; TGI [26]: > 100 µM; TGI [27]: > 100 µM; TGI [28]: > 100 µM; TGI [58]: > 100 µM; TGI [29]: > 100 µM; TGI [31]: > 100 µM; TGI [33]: > 100 µM; TGI [34]: > 100 µM; TGI [35]: > 100 µM; TGI [55]: > 100 µM; TGI [38]: 90.8 µM; TGI [39]: > 100 µM; TGI [40]: > 100 µM; TGI [42]: > 100 µM; TGI [43]: > 100 µM; TGI [44]: > 100 µM; TGI [45]: > 100 µM; TGI [46]: > 100 µM; TGI [47]: > 100 µM; TGI [48]: > 100 µM; TGI [49]: > 100 µM; TGI [59]: > 100 µM; TGI [50]: > 100 µM; TGI [51]: > 100 µM
